{"source": "patent US6759238B1", "about": "“Multidrug resistance associated proteins and uses thereof” (priority 1999, dated 2004)", "key": {"[1]": {"test_system": "CEM-SS cells", "test": "Cytotoxicity assay (growth inhibition, Coulter counter)", "procedure": "[…] Each result is the mean of one representative experiment performed in duplicate. The cultures with the purine nucleosides adenosine, 2′-deoxyadenosine, and arabinosyladenine contained 5 μM deoxycoformycin to inhibit adenosine deaminase activity.\n(§1) All assays were performed in 24-well tissue culture plates (Costar, Cambridge, Ma.). […] At the end of the incubation, the cell concentrations, sizes, and volumes were counted in a Coulter counter (Coulter Electronics, Hialeah. Fla.)."}, "[2]": {"test_system": "CEM-r1 cells", "test": "Cytotoxicity assay (growth inhibition, Coulter counter)", "settings": "for Relative Resistance: CEM-r1 vs CEM-SS (Table 3); for Cross-resistance of CEM-r1 cells (in words): relative sensitivity of wild-type and CEM-r1 cells", "procedure": "Selection for PMEA resistance was carried out by exposing CEM-SS cells in culture to increasing concentrations of PMEA, over several months.\nThe IC50 values were obtained after 2 days of culture. Each result is the mean of one representative experiment performed in duplicate. The cultures with the purine nucleosides adenosine, 2′-deoxyadenosine, and arabinosyladenine contained 5 μM deoxycoformycin to inhibit adenosine deaminase activity.\nas §1"}, "[3]": {"test_system": "CEM-SS cells", "test": "Uptake and metabolism of [3H]PMEA", "settings": "10 μM [3H]PMEA", "experimental": "(§3) The mutant and parental cells were incubated with 10 μM [^3H]PMEA and at various times were analyzed for intracellular levels of PMEA and its metabolites by Partisil SAX HPLC. […] The metabolism of [^3H]PMEA was also examined in both cell lines after longer periods (i.e., 8 and 12 hr) of incubation with 10 μM [^3H]PMEA.\n(§4) Exponentially growing cultures were incubated with 10 μM [^3H] PMEA for 8 or 12 hr and the cell extracts were analyzed for PMEA and its metabolites by ion exchange HPLC, as described.\n(§5) Exponentially growing CEM-SS and CEM-r1 cells were harvested by centrifugation, resuspended at 1×10^6 cells/ml in fresh medium in the presence of [^3H]PMEA or [^3H]bispom-PMEA, and incubated at 37° C. At the indicated time points, aliquots of the cells were removed and centrifuged through Nyosil 50 (W. F. Nye, Inc., New Bedford, Ma.) at 13,000×g for 60 seconds at 4° C. When bispom-PMEA was investigated, an aliquot of the cell-free medium was also removed and analyzed by HPLC for determination of extracellular metabolites. The cell pellet was extracted with 70% ice-cold methanol and the aqueous phase was collected and analyzed for intracellular tritiated PMEA or tritiated bispom-PMEA and their metabolites by using HPLC analysis, essentially as described previously (23, 24)."}, "[4]": {"test_system": "CEM-r1 cells", "test": "Uptake and metabolism of [3H]PMEA", "settings": "for Intracellular levels: CEM-r1, 10 μM [3H]PMEA", "experimental": "as §3, §4, §5"}, "[5]": {"test_system": "CEM-r1 cells", "test": "Efflux of [3H]-AZT and its metabolites", "format": "in vitro ADME, human", "procedure": "Cells were incubated for 60 minutes with [^3H]-AZT (10 μM) after which they were washed free of radioactivity, resuspended in drug-free medium and the intracellular and the extracellular concentration of [^3H]-AZT were measured. […] At least 80% of the AZTMP present intracellularly in CEM-r1 cells was excreted into the medium in 10 minutes (FIG. 6A).\nReferring to Table 6 in greater detail, efflux kinetics were studied. Transport analysis of PMEA was conducted as previously described^48. […] The cells were then washed free of radioactivity and then incubated in drug-free medium in the presence of sodium azide and 2-deoxy-D-glucose. At various time periods, the amount of intracellular AZTMP was measured. As reported in Table 6, depletion of ATP led to an inhibition of AZTMP efflux (i.e. a significant accumulation of AZTMP in the CEM-r1 cells but not in the CEM-SS cells).\nThe suspension was centrifuged at 3,300 rpm for 7 minutes. All but 1 ml of the supernatant medium containing the free drug was aspirated. […] The cell pellet was then washed with ice-cold medium and resuspended at the same concentration in drug-free medium and maintained at 37° C. […] An aliquot of the top layer (cell free media) was analyzed for the quantitation of AZT and its metabolites."}, "[6]": {"test_system": "CEM-SS cells", "test": "Uptake and metabolism of [3H]bispom-PMEA", "settings": "CEM-SS, 1 μM [3H]bispom-PMEA, 15 minutes", "procedure": "(§2) Therefore, the metabolism of [^3H]bispom-PMEA (15), a lipophilic prodrug of PMEA, was analyzed in the two cell lines in order to further examine the mechanism of resistance in the mutant cell line."}, "[7]": {"test_system": "CEM-r1 cells", "test": "Uptake and metabolism of [3H]bispom-PMEA", "settings": "CEM-r1, 1 μM [3H]bispom-PMEA, 15 minutes", "procedure": "as §2"}, "[8]": {"settings": "CEM-SS, 2 days of culture (Table 3)"}, "[9]": {"settings": "CEM-r1, 2 days of culture (Table 3)"}}, "note": "Read-outs that look alike come from different tables or passages of the source.", "data": [{"smiles": "Nc1ncnc2c1ncn2C[C@@H](CO)OCP(=O)(O)O", "note": "[HPMPA]", "values": [{"measurement": "IC50", "setting": "[1]; [8]", "result": 92, "unit": "µM"}, {"measurement": "IC50", "setting": "[2]; [9]", "result": 1100, "unit": "µM"}, {"measurement": "Relative Resistance", "setting": "[2]", "result": 12}, {"measurement": "Cross-resistance of CEM-r1 cells (in words)", "setting": "[2]", "result": "partial cross-resistance"}]}, {"smiles": "NC(=O)NO", "note": "[Hydroxyurea]", "values": [{"measurement": "IC50", "setting": "[1]; Homo sapiens, CEM-SS, 48 h", "result": 55, "unit": "µM"}, {"measurement": "Relative Resistance", "setting": "[2]", "result": "˜1"}, {"measurement": "IC50", "setting": "[2]; Homo sapiens, 48 h", "result": 50, "unit": "µM"}]}, {"smiles": "COc1cc2c(c(OC)c1OC)-c1ccc(OC)c(=O)cc1[C@@H](NC(C)=O)CC2", "note": "[Colchicine]", "values": [{"measurement": "Cross-resistance of CEM-r1 cells (in words)", "setting": "[2]", "result": "not resistant"}]}, {"smiles": "Nc1ncnc2c1ncn2CCOCP(=O)(O)OP(=O)(O)OP(=O)(O)O", "note": "[PMEApp]", "values": [{"measurement": "Intracellular levels", "setting": "[3]; 8 hr", "result": 0.22, "unit": "µM"}, {"measurement": "Intracellular levels", "setting": "[3]; 12 hr", "result": 0.41, "unit": "µM"}, {"measurement": "Intracellular levels", "setting": "[4]; 8 hr", "result": 0.008, "unit": "µM"}, {"measurement": "Intracellular levels", "setting": "[4]; 12 hr", "result": 0.01, "unit": "µM"}, {"measurement": "Intracellular level in CEM-r1 as percent of the wildtype level", "setting": "[4]; CEM-r1 vs CEM-SS, 8 hr", "result": "(3.6%)"}]}, {"smiles": "Nc1nc(N)c2ncn(CCOCP(=O)(O)O)c2n1", "note": "[PMEADAP]", "values": [{"measurement": "IC50", "setting": "[1]; Homo sapiens, CEM-SS, 48 h", "result": 2.3, "unit": "µM"}, {"measurement": "Relative Resistance", "setting": "[2]", "result": 533}, {"measurement": "IC50", "setting": "[2]; Homo sapiens, 48 h", "result": 1200, "unit": "µM"}, {"measurement": "Cross-resistance of CEM-r1 cells (in words)", "setting": "[2]", "result": "highly cross-resistant"}]}, {"smiles": "Cc1cn([C@H]2C[C@H](N=[N+]=[N-])[C@@H](COP(=O)(O)OP(=O)(O)O)O2)c(=O)[nH]c1=O", "note": "[AZTDP]", "values": [{"measurement": "Change of intracellular levels over the time period studied", "setting": "[5]", "result": "did not change significantly"}, {"measurement": "Share of total cellular anabolites", "setting": "[5]", "result": 1, "unit": "%"}]}, {"smiles": "Nc1nc2c(ncn2CCOCP(=O)(O)O)c(=O)[nH]1", "note": "[PMEG, 9-(2-phosphonylmethoxyethyl)guanine]", "values": [{"measurement": "IC50", "setting": "[1]; [8]", "result": 0.7, "unit": "µM"}, {"measurement": "IC50", "setting": "[1]; read-out: Cytotoxicity IC50, WT (CEM-SS) cells (Table 5)", "result": 5, "unit": "µM"}, {"measurement": "IC50", "setting": "[2]; [9]", "result": 19, "unit": "µM"}, {"measurement": "IC50", "setting": "[2]; read-out: Cytotoxicity IC50, CEM-r1 cells (Table 5)", "result": 200, "unit": "µM"}, {"measurement": "Cross-resistance of CEM-r1 cells (in words)", "setting": "[2]", "result": "partial cross-resistance"}]}, {"smiles": "CC(C)(C)C(=O)OCOP(=O)([O-])COCCn1cnc2c(N)ncnc21.[Na+]", "note": "[Monopom-PMEA]", "values": [{"measurement": "Metabolite Levels, Cells", "setting": "[6]", "result": 4.6, "unit": "µM"}, {"measurement": "Metabolite Levels, Medium", "setting": "[6]", "result": 185, "unit": "nM"}, {"measurement": "Metabolite Levels, Cells", "setting": "[7]", "result": 4.1, "unit": "µM"}, {"measurement": "Metabolite Levels, Medium", "setting": "[7]", "result": 166, "unit": "nM"}]}, {"smiles": "Nc1ncnc2c1ncn2[C@H]1C[C@H](O)[C@@H](CO)O1", "note": "[2′-Deoxyadenosine]", "values": [{"measurement": "IC50", "setting": "[1]; Homo sapiens, CEM-SS, 48 h", "result": 1.7, "unit": "µM"}, {"measurement": "Relative Resistance", "setting": "[2]", "result": "˜1"}, {"measurement": "IC50", "setting": "[2]; Homo sapiens, 48 h", "result": 2.5, "unit": "µM"}]}]}
